For 12 molecules, IC50 and minimal effective concentration results are on record in US9023849B2, “Substituted fused imidazoles and pyrazoles and use thereof” (Bayer Intellectual Property GmbH, priority 2012, dated 2015).

One test deals with human PDE 5 (Homo sapiens (Human), UniProt O76074). As to the kind of experiment: Inhibition of human phosphodiesterase 5 (PDE 5), SPA assay. Type of test: biochemical. The conditions noted are these: PDE 5 preparation from human platelets, [8-3H]cGMP substrate. The method, then: B-6. Inhibition of Human Phosphodiesterase 5 (PDE 5)
PDE 5 preparations are obtained from human platelets by disruption (Microfluidizer®, 800 bar, 3 passes), followed by centrifugation (75 000 g, 60 min, 4° C.) and ion exchange chromatography of the supernatant on a Mono Q 10/10 column (linear sodium chloride gradient, elution with a 0.2-0.3M solution of sodium chloride in buffer (20 mM Hepes pH 7.2, 2 mM magnesium chloride). Fractions having PDE 5 activity are combined (PDE 5 preparation) and stored at −80° C.
To determine their in vitro action on human PDE 5, the test substances are dissolved in 100% DMSO and serially diluted. Typically, dilution series (1:3) from 200 μM to 0.091 μM are prepared (resulting final concentrations in the test: 4 μM to 0.0018 μM). In each case 2 μl of the diluted substance solutions are placed into the wells of microtitre plates (Isoplate-96/200 W; Perkin Elmer). Subsequently, 50 μl of a dilution of the above-described PDE 5 preparation are added. The dilution of the PDE 5 preparation is selected such that, during the later incubation, less than 70% of the substrate is converted (typical dilution: 1:100; dilution buffer: 50 mM tris/hydrochloric acid pH 7.5, 8.3 mM magnesium chloride, 1.7 mM EDTA, 0.2% BSA). The substrate, [8-^3H]cyclic guanosine-3′,5′-monophosphate (1 μCi/μl; Perkin Elmer) is diluted 1:2000 with assay buffer (50 mM tris/hydrochloric acid pH 7.5, 8.3 mM magnesium chloride, 1.7 mM EDTA) to a concentration of 0.0005 μCi/μl. By addition of 50 μl (0.025 μCi) of the diluted substrate, the enzyme reaction is finally started. The test mixtures are incubated at room temperature for 60 min and the reaction is stopped by adding 25 μl of a suspension of 18 mg/ml yttrium scintillation proximity beads in water (phosphodiesterase beads for SPA assays, RPNQ 0150, Perkin Elmer). The microtitre plates are sealed with a film and left to stand at room temperature for 60 min Subsequently, the plates are analysed for 30 s per well in a Microbeta scintillation counter (Perkin Elmer). IC50 values are determined using the graphic plot of the substance concentration against percentage PDE 5 inhibition.

For a further test, the system named is rabbit aorta rings. As to the kind of experiment: Vasorelaxant effect in vitro (rabbit aorta rings precontracted with phenylephrine). The note with it: Oryctolagus cuniculus, phenylephrine contraction, read-out: IC50 (concentration needed to reduce the magnitude of the phenylephrine contraction by 50%). The method, then:
B-1. Vasorelaxant Effect In Vitro
Rabbits are stunned by a blow to the neck and exsanguinated. The aorta is removed, freed from adhering tissue and divided into rings of width 1.5 mm, which are placed individually under prestress into 5 ml organ baths with carbogen-sparged Krebs-Henseleit solution at 37° C. having the following composition (each mM): sodium chloride: 119; potassium chloride: 4.8; calcium chloride dihydrate: 1; magnesium sulphate heptahydrate: 1.4; potassium dihydrogenphosphate: 1.2; sodium hydrogencarbonate: 25; glucose: 10. The contractile force is determined with Statham UC2 cells, amplified and digitalized using A/D transducers (DAS-1802 HC, Keithley Instruments Munich), and recorded in parallel on linear recorders.
To obtain a contraction, phenylephrine is added to the bath cumulatively in increasing concentration. After several control cycles, the substance to be studied is added in increasing dosage each time in every further run, and the magnitude of the contraction is compared with the magnitude of the contraction attained in the last preceding run. This is used to calculate the concentration needed to reduce the magnitude of the control value by 50% (IC50 value). The standard administration volume is 5 μl; the DMSO content in the bath solution corresponds to 0.1%.

In test [1] the test system is recombinant guanylate cyclase reporter cell line. As to the kind of experiment: Effect on a recombinant guanylate cyclase reporter cell line. Type of test: cell-based. The note with it: read-out: MEC (minimal effective concentration). The method, then:
B-2. Effect on a Recombinant Guanylate Cyclase Reporter Cell Line
The cellular action of the inventive compounds is determined on a recombinant guanylate cyclase reporter cell line as described in F. Wunder et al., Anal. Biochem. 339, 104-112 (2005).

Structures are written as SMILES.

With `CC1(C)C(=O)Nc2nc(-c3nn(Cc4ccccc4F)c4ncncc34)nnc21` [Example 19, 3-[1-(2-Fluorobenzyl)-1H-pyrazolo[3,4-d]pyrimidin-3-yl]-7,7-dimethyl-5,7-dihydro-6H-pyrrolo[2,3-e][1,2,4]triazin-6-one], the values for the IC50 against human PDE 5 and in the test with rabbit aorta rings were 370 nM and 124 nM, respectively. In test [1], the minimal effective concentration was 0.1 µM.

As to `CC1(C)C(=O)Nc2nc(-c3nn(Cc4ccccc4F)c4c3CCC4)ncc21` [Example 11, 2-[1-(2-Fluorobenzyl)-1,4,5,6-tetrahydrocyclopenta[c]pyrazol-3-yl]-5,5-dimethyl-5,7-dihydro-6H-pyrrolo[2,3-d]pyrimidin-6-one], the values for the IC50 at human PDE 5 and with rabbit aorta rings were 4000 nM and 601 nM, respectively. For the same molecule, the minimal effective concentration in test [1] was 0.3 µM.

`CC1(C)C(=O)Nc2nc(-n3nc(Cc4ccccc4F)c4ncc(F)cc43)nnc21` [Example 9, 3-[6-Fluoro-3-(2-fluorobenzyl)-1H-pyrazolo[4,3-b]pyridin-1-yl]-7,7-dimethyl-5,7-dihydro-6H-pyrrolo[2,3-e][1,2,4]triazin-6-one]: the IC50 at human PDE 5 was 85 nM; in the test on rabbit aorta rings, 641 nM. Also, the minimal effective concentration in test [1] came out at 0.1 µM.

For `CCc1nc(-n2nc(Cc3ccccc3F)c3cc(F)ccc32)nc2c1C(C)(C)C(=O)N2` [Example 23, 4-Ethyl-2-[5-fluoro-3-(2-fluorobenzyl)-1H-indazol-1-yl]-5,5-dimethyl-5,7-dihydro-6H-pyrrolo[2,3-d]pyrimidin-6-one], the figures for the IC50 against human PDE 5 and with rabbit aorta rings were 440 nM and 8060 nM, respectively. The minimal effective concentration in test [1] came to 1 µM.

For the molecule `CC1(C)C(=O)Nc2nc(-n3nc(Cc4ccccc4F)c4cc(F)ccc43)ncc21` [Example 8, 2-[5-Fluoro-3-(2-fluorobenzyl)-1H-indazol-1-yl]-5,5-dimethyl-5,7-dihydro-6H-pyrrolo[2,3-d]pyrimidin-6-one], the IC50 against human PDE 5 came to 400 nM; in the test with rabbit aorta rings, 95 nM. For the same molecule, in test [1], the minimal effective concentration stood at 0.3 µM.

Take `CC1(C)C(=O)Nc2nc(-c3nn(CCC(F)(F)C(F)(F)F)c4cc(Cl)ccc34)nnc21` [Example 26, 3-[6-Chloro-1-(3,3,4,4,4-pentafluorobutyl)-1H-indazol-3-yl]-7,7-dimethyl-5,7-dihydro-6H-pyrrolo[2,3-e][1,2,4]triazin-6-one]: the results for the IC50 at human PDE 5 and with rabbit aorta rings were 95 nM and 794 nM, respectively. The minimal effective concentration in test [1] was 0.3 µM.

Consider `Cc1ncc2c(-c3nnc4c(n3)NC(=O)C4(C)C)nn(Cc3ccccc3F)c2n1` [Example 16, 3-[1-(2-Fluorobenzyl)-6-methyl-1H-pyrazolo[3,4-d]pyrimidin-3-yl]-7,7-dimethyl-5,7-dihydro-6H-pyrrolo[2,3-e][1,2,4]triazin-6-one], for which the IC50 amounted to 64 nM on human PDE 5 and 340 nM with rabbit aorta rings. Moreover, the minimal effective concentration in test [1] amounted to 0.3 µM.

For the molecule `CC1(C)C(=O)Nc2nc(-n3nc(Cc4ccccc4F)c4cc(F)ccc43)nnc21` [Example 21, 3-[5-Fluoro-3-(2-fluorobenzyl)-1H-indazol-1-yl]-7,7-dimethyl-5,7-dihydro-6H-pyrrolo[2,3-e][1,2,4]triazin-6-one], the figures for the IC50 against human PDE 5 and in the test with rabbit aorta rings were 75 nM and 1130 nM, respectively. Moreover, the minimal effective concentration in test [1] was determined as 0.1 µM.

As for `CC1(C)C(=O)Nc2nc(-n3nc(Cc4ccccc4F)c4ccccc43)ncc21` [Example 5, 2-[3-(2-Fluorobenzyl)-1H-indazol-1-yl]-5,5-dimethyl-5,7-dihydro-6H-pyrrolo[2,3-d]pyrimidin-6-one], the IC50 worked out at 440 nM against human PDE 5 and 22 nM in the test on rabbit aorta rings. Also, in test [1], the minimal effective concentration came out at 0.03 µM.

On to `CC1(C)C(=O)Nc2nc(-n3nc(Cc4c(F)ccc(F)c4F)c4cc(Cl)ccc43)ncc21` [Example 2, 2-[5-Chloro-3-(2,3,6-trifluorobenzyl)-1H-indazol-1-yl]-5,5-dimethyl-5,7-dihydro-6H-pyrrolo[2,3-d]pyrimidin-6-one], for which the values for the IC50 against human PDE 5 and in the test with rabbit aorta rings were 3700 nM and 5160 nM, respectively. The minimal effective concentration in test [1] is 0.065 µM.

For the molecule `CCCc1nc(-n2nc(Cc3ccccc3F)c3ccccc32)nc2c1C(C)(C)C(=O)N2` [Example 28, 2-[3-(2-Fluorobenzyl)-1H-indazol-1-yl]-5,5-dimethyl-4-propyl-5,7-dihydro-6H-pyrrolo[2,3-d]-pyrimidin-6-one], the IC50 on human PDE 5 was 450 nM; in the test with rabbit aorta rings it was 10000 nM. For the same molecule, in test [1], the minimal effective concentration turned out to be 1 µM.

Regarding `Cc1nc(-n2nc(Cc3ccccc3F)c3cc(F)ccc32)nc2c1C(C)(C)C(=O)N2` [Example 27, 2-[5-Fluoro-3-(2-fluorobenzyl)-1H-indazol-1-yl]-4,5,5-trimethyl-5,7-dihydro-6H-pyrrolo[2,3-d]pyrimidin-6-one], the IC50 at human PDE 5 came out at 340 nM; in the test on rabbit aorta rings, 1670 nM. Moreover, the minimal effective concentration in test [1] was 0.3 µM.
